The results in this text go back to patent US6969590B2, “Use of a polypeptide for treatment of pruritus in animals” (Zengen, Inc., priority 2001, dated 2005).

The test system of test [1] is edema caused by intradermal injection of human recombinant IL-1β in the mouse ear. Nature of the test: Ear edema by intradermal recombinant human IL-1β. The format is in vivo, BALB/c mice. The conditions noted are these: for effect of antagonist on anti-inflammatory effect of centrally administered α-MSH (1-13): antagonist administered intraperitoneally. On the procedure:
Female BALB/c mice (Simonsen Laboratories, Gilroy, Calif.), 7-8 weeks old, were housed at 23-25° C. in groups not exceeding five animals per cage [28 cm (L)×18 cm (W)×13 cm (H)]. Before the experiments they were acclimatized for not less than 1 week before experimentation to standard lighting and temperature conditions with food and water freely available.
Mice were anesthetized with 10% pentobarbital sodium solution (1 mg/mouse, 50 mg/ml, Nembutal sodium solution; Abbott Laboratories, North Chicago, Ill.). Baseline ear thickness measurements were taken with a spring-loaded micrometer (Swiss Precision Instruments, Los Angeles, Calif.). Ear thickness was expressed in cubic centimeters and was measured at least twice at each time point. The average thickness of unstimulated ears was […]. Inflammation was induced by intradermal injection of 20 μl of recombinant human IL-1β (1500 U; Genzyme, Cambridge, Mass.) in one ear of each mouse using a 28 gauge needle (Hiltz et al., 1992). Measures of ear thickness were repeated 4 and 6 hr later, while the mice were under sodium pentobarbital anesthesia. Edema was assessed by subtracting baseline measures from 4 and 6 hr readings for each animal. α-MSH (11-13) (1663.9 gm/mol; Peninsula Laboratories, Belmont, Calif.) or α-MSH (11-13) (383.48 gm/mol; Peninsula Laboratories) dissolved in saline was injected intracerebroventricularly (20 μl) using procedures described previously (Lipton et al., 1991; Lipton and Catania, 1993).
Several agents were administered at the time of ear challenge to pharmacologically block certain receptors: atropine (Sigma Chemical Co.; 150 μg i.p.), a muscarinic receptor blocker that acts on autonomic end-organ receptors, was chosen because of links between inflammation and modulation of pain and the finding that muscarinic antagonists increase pain threshold (Hartvig et al., 1989); phentolamine (Sigma; 150 μg i.p.) an agent that competes for occupancy of α-adrenergic receptors; propranolol (Sigma; 150 μg, i.p.; 30 μg, i.c.v.), a nonspecific competitive antagonist for β-adrenergic receptors.
(§1) Because of the size of the experiments and the requirement for several shipments of animals over time, several experiments were performed, each with complete treatment and control groups drawn from the same shipment of mice. Omnibus analysis of variance techniques (Dynastat, Washington, D.C.) were used to test overall differences among group means. Tukey's protected t test was used to compare individual means. Probability values of <0.05 were considered significant.

The test system of test [2] is inflammation induced in the hind paw. Nature of the test: Kappa carrageenan-induced hind paw inflammation, spinal cord intact or transected. It is filed as in vivo, BALB/c mice. The conditions noted are these: 2.5 mg/mouse IP, mice with spinal transection, 4.5 h after carrageenan. On the procedure: Because surgical dissection of trigeminal structures that innervate the ear of the mouse is very difficult, tests to learn whether descending neural pathways are essential to the anti-inflammatory activity of centrally administered α-MSH peptides were performed in mice with inflammation induced in a hind paw. In these experiments, each animal was anesthetized with pentobarbital sodium solution as above. Baseline footpad thickness of both hind paws was measured with a spring-loaded micrometer (Swiss Precision Instruments, Los Angeles, Calif.). Paw thickness was expressed in units of 10^−3 cm; average thickness of unstimulated paws was 171.5×10^−3 cm across shipments of animals. Kappa carrageenan (Sigma) dissolved in saline (0.05%, 20 μl) was injected (28 gauge allergy test syringe) into one footpad, and saline (20 μl) was injected into the other. For the analyses, the increase in thickness of the control saline-injected paw of each animal was subtracted from that of the carrageenan-injected paw, to eliminate the influence of mechanical injury and volume of the injected fluid. To be certain that mice with severed spinal cords can react to anti-inflammatory agents, prednisolone (2.5 mg/mouse (IP injection)) was administered to 10 mice with spinal transection and inflammation induced by carrageenan. Treatment with the locally acting steroid reduced swelling up to 29% (average, relative to saline controls) at 4.5 h. after carrageenan.
However, a standardized crushing of lumbar vertebrae with a hemostat was effective in severing the cord; no deaths were caused by this treatment. […] The experiments were limited to 4.5 h to reduce problems of bowel and bladder dysfunction. Immediately after the 4.5 h measurements all mice were killed with an overdose of sodium pentobarbital.
as §1
A general note: In the carrageenan paw model, swelling and tenderness develop within hours.

For test [3], the system named is inflammation induced in the ear by picryl chloride. Nature of the test: Picryl chloride-induced ear swelling. It is filed as in vivo, BALB/C mice. The conditions noted are these: for overall effect on ear inflammation (ANOVA): 10-80 μg IP, 3 and 6 h. On the procedure:
Female BALB/C mice (Simmons Laboratories), 7 weeks old, were housed at 23-25° C. in groups of no more than 5 per cage [28 cm (L)×18 cm (W)×13 cm (H)]. They were allowed to acclimatize to standard lighting and temperature conditions for at least 1 week, with food and water available ad lib, before the experiment began. Five to ten animals were randomly assigned to each treatment group each test day, and all experiments were repeated at least twice to confirm reproducibility. To reduce error due to slight differences in responses to the irritant of animals from different shipments, tests of each agent were performed as separate experiments in which experimental and control animals were drawn from the same shipment.
In the experiments each animal was anesthetized with 1 mg of pentobarbital sodium solution (50 mg/kg, Nembutal, Abbott Laboratories, Abbott park, Ill.). Baseline ear thickness was measured for both ears with a spring-loaded micrometer (Swiss Precision Instruments, Los Angeles, Calif.). Ear thickness was expressed in units of 10^−3 cm; the average thickness of unstimulated ears was approximately 25-30×10^−3 cm. After baseline measurements were taken, one of six solutions was injected IP. Control animals received 0.2 ml of sterile saline, and experimental animals received Ac-α-MSH (11-13)-NH2, i.e., Ac-Lys-Pro-Val-NH2), Ac[D-Lys^11] α-MSH (11-13)-NH2, Ac[D-Pro^12] α-MSH (11-13)-NH2, Ac[D-Val^13] α-MSH (11-13)-NH2 or Ac-[D-Lys^11, D-Val^13] α-MSH (11-13)-NH2 in the same volume of saline. […] The doses of the tripeptides were 10 μg ([…]), 20 μg ([…]), 40 μg (1.04×10^−7 M), and 80 μg (2.08×10^−7 M). Immediately after saline or α-MSH injection, a micropipette was used to coat both sides of each ear with 10 μl (40 μl per mouse) of a 0.5% picryl chloride (Polysciences, Warrington, Pa.) solution in acetone.
Ear thickness was remeasured 3 and 6 h after picryl chloride application. Swelling was determined by subtracting baseline thickness from the measurements for each ear at 3 and 6 h. The differences for both ears were then averaged for the final analysis.
Repeated-measure ANOVA techniques were used to determine if there was an overall difference among group data for each peptide tested in separate experiments. In those cases in which the ANOVA yielded significant results, Dunnett's test was then used to compare the effects of peptide doses with control (saline) data for each of the two time periods, 3 and 6 h.

The test system of test [4] is C. albicans. Nature of the test: C. albicans colony forming units (candidacidal activity). It is filed as cell-based. The conditions noted are these: for relative potency in reducing C. albicans viability: 10^−4M melanocortin peptides; for reduction of C. albicans CFU at higher concentrations: up to 10^−4M. The protocol: C. albicans (1×10^6/ml in HBSS) was incubated in the presence or absence or α-MSH (1-13) or α-MSH (11-13) at concentrations in the range of 10^−15 M to 10^−6 M for 2 hours at 37° C. Cells were then washed in cold distilled water and diluted with HBSS to a concentration of 100 organisms/ml. One-ml aliquots were dispensed on blood agar plates and incubated for 48 hours at 37° C. Organism viability was estimated from the number of colonies formed. In subsequent experiments using familiar procedures we compared activity of α-MSH (4-10), α-MSH (6-13), α-MSH (11-13), ACTH (1-39), (18-39) and fluconazole, the latter an established antifungal agent. Melanocortin peptides and fluconazole were tested in concentrations of 10^−6 M to 10^−4 M. There were at least six replicates for each concentration of peptide.

For test [5], the system named is C. albicans. In words: Horse serum-induced germ tube formation of C. albicans. The format is cell-based. The conditions noted are these: 10^−6M, 60 minutes at 37° C. On the procedure: C. albicans from stationary phase cultures were washed twice with distilled water and suspended in HBSS to a final concentration of 2×10^6/ml. Hyphal growth was induced by addition of 10% inactivated horse serum (GIBCO/BRL, Great Britain) to yeast incubated for 45 minutes at 37° C. with continuous shaking. Horse serum was removed by washing cells twice with HBSS and incubation was continued for 60 minutes at 37° C. in the presence of α-MSH (1-13), α-MSH (6-13) or α-MSH (11-13) at a concentration of 10^−6M with continuous shaking. The percentage of filamentous cells was evaluated under a light microscope with the aid of hemocytometer. Experiments were run in triplicate and at least 200 cells were scored. Photomicrographs were taken with an MC100 camera attached to an Axioskop Zeiss microscope.

In the case of `CC(C)NCC(O)COc1ccc(CC(N)=O)cc1` (centres unmarked) [atenolol], the “effect of antagonist on anti-inflammatory effect of centrally administered α-MSH (1-13)” value (shortened to “effect … of centrally administered α-MSH (1-13)”) in test [1] is given as “little inhibition”.

Consider `CC(C)NCC(O)COc1cccc2ccccc12` (centres unmarked) [propranolol], for which the “effect … of centrally administered α-MSH (1-13)” value in test [1] is given as “inhibited”. Also, the “effect of antagonist on anti-inflammatory influence of α-MSH (1-13)” value in test [1] (antagonist injected centrally) is listed as “little effect”.

With `C[C@]12C=CC(=O)C=C1CC[C@@H]1[C@@H]2[C@@H](O)C[C@@]2(C)[C@H]1CC[C@]2(O)C(=O)CO` [prednisolone, reference compound], the “reduction of swelling relative to saline controls (average)” value in test [2] is listed as “up to 29%”.

On to `COc1ccc(OC)c(C(O)C(C)NC(C)(C)C)c1` (centres unmarked) [butoxamine], for which the “effect … of centrally administered α-MSH (1-13)” value in test [1] is “significantly reduced”.

Turning to `CN1[C@@H]2CC[C@H]1C[C@@H](OC(=O)C(CO)c1ccccc1)C2` (some centres unmarked) [atropine], in test [1], the “effect … of centrally administered α-MSH (1-13)” value is listed as “did not alter”.

Regarding “Ac-[D-Lys^11, D-Val^13] α-MSH (11-13)-NH2 [Ac-[D-Lys^11, D-Val^13]α-MSH(11-13)-NH2]”, the “% Inhibition of swelling” value amounted to 22% in test [3] (10 μg IP, 3 h); 22% in test [3] (10 μg IP, 6 h); 55% in test [3] (20 μg IP, 3 h); 46% in test [3] (20 μg IP, 6 h); 42% in test [3] (40 μg IP, 3 h); 41% in test [3] (40 μg IP, 6 h). The “% Inhibition of swelling” value in test [3] (80 μg IP, 3 h) is given as 40%; in test [3] (80 μg IP, 6 h), 44%. Further, the “overall effect on ear inflammation (ANOVA)” value (shortened to “overall effect”) in test [3] is reported as “significant overall reduction in inflammation”.

As to “ACTH (1-39): adrenocortitrophic hormone peptide (1-39) (SYSMEHFRWGKPVGKKRRPVKVYPNGAEDESAEAFPLEF; Corticotropin; UniProt P01189 138-176, looked up) [reference compound]”, in the test on C. albicans [4], the “relative potency in reducing C. albicans viability” value is on record as “did not reduce C. albicans viability” and the “reduction of C. albicans CFU at higher concentrations” value is given as “ineffective”.

Take Ac-[D-Pro^12]α-MSH (11-13)-NH2: the “% Inhibition of swelling” value is 4% in test [3] (10 μg IP, 3 h); 8% in test [3] (10 μg IP, 6 h); 11% in test [3] (20 μg IP, 3 h); 5% in test [3] (20 μg IP, 6 h); 10% in test [3] (40 μg IP, 3 h); 8% in test [3] (40 μg IP, 6 h). Further, the “% Inhibition of swelling” value in test [3] (80 μg IP, 3 h) was determined as 8%; in test [3] (80 μg IP, 6 h), 6%. In addition, the “overall effect” value in test [3] is given as “no significant effect on inflammation”.

Turning to “ACTH fragment (18-39): ACTH fragment (18-39) (RPVKVYPNGAEDESAEAFPLEF; Corticotropin; UniProt P01189 155-176, looked up, fragment) [reference compound]”, in the test with C. albicans [4], the “relative potency in reducing C. albicans viability” value is on record as “did not reduce C. albicans viability” and the “reduction of C. albicans CFU at higher concentrations” value was “ineffective”.

Consider Ac[D-Val^13] α-MSH (11-13)-NH2, for which the “% Inhibition of swelling” value in test [3] (10 μg IP, 3 h) is 24%; in test [3] (10 μg IP, 6 h) it was 23%; in test [3] (20 μg IP, 3 h) it was 48%; in test [3] (20 μg IP, 6 h) it was 54%; in test [3] (40 μg IP, 3 h), 39%; in test [3] (40 μg IP, 6 h) it was 45%. The “% Inhibition of swelling” value in test [3] (80 μg IP, 3 h) is 41%; in test [3] (80 μg IP, 6 h), 29%. In test [3], the “overall effect” value is given as “marked inhibitory influence”.

As to “HFRWGKPV (Designed polypeptide with anti-inflammatory, anti-bacterial, anti-fungal and antipyretic properties.) [α-MSH (6-13)]”, the “relative potency in reducing C. albicans viability” value in the test on C. albicans [4] is “the most effective”. Besides, the “reduction in the number of filamentous cells (inhibition of germination)” value with C. albicans [5] is “approximately 50%”.

Consider MEHFRWG [α-MSH (4-10)], for which, in the test on C. albicans [4] (10^−4M peptide as printed), the “inhibition of CFU” value was “approximately 50%”.

Consider `Cc1ccc(N(CC2=NCCN2)c2cccc(O)c2)cc1` [phentolamine], for which the “effect … of centrally administered α-MSH (1-13)” value in test [1] is recorded as “did not alter”.
